Assay results published in BindingDB's records for doi:10.1016/j.chembiol.2007.12.010 (Brandeis University, 2008).

Legend:
Experiment in all cases: Enzyme Inhibition Assay
Details in all cases: pH 8; 25 °C
[1] = target: Inosine-5'-monophosphate dehydrogenase 2 (Homo sapiens, UniProt P12268)
Excerpt: (§1) Enzyme inhibition assay using recombinant human IMPDH1 and IMPDH2 and C.parvum were expressed in guaB strains of escherichia coli.

[2] = target: Inosine-5'-monophosphate dehydrogenase 1 (Homo sapiens, UniProt P20839)
Excerpt: as §1

[3] = target: T1, Inosine-5-monophosphate dehydrogenase (Cryptosporidium parvum, UniProt Q5CPK7)
T1 sequence (Q5CPK7 whole entry): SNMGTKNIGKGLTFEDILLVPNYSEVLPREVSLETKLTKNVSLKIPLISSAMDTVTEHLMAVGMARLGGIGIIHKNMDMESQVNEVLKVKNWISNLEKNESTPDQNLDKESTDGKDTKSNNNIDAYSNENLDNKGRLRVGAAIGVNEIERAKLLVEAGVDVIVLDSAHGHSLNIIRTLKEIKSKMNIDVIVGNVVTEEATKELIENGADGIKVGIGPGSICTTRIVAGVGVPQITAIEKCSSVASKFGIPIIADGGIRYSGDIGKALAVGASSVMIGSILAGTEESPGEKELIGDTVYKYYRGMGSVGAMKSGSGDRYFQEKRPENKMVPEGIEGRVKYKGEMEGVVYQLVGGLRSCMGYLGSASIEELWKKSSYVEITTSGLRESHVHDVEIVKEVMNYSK
Excerpt: as §1

Inosine-5'-monophosphate dehydrogenase 1, sequence (P20839 whole entry): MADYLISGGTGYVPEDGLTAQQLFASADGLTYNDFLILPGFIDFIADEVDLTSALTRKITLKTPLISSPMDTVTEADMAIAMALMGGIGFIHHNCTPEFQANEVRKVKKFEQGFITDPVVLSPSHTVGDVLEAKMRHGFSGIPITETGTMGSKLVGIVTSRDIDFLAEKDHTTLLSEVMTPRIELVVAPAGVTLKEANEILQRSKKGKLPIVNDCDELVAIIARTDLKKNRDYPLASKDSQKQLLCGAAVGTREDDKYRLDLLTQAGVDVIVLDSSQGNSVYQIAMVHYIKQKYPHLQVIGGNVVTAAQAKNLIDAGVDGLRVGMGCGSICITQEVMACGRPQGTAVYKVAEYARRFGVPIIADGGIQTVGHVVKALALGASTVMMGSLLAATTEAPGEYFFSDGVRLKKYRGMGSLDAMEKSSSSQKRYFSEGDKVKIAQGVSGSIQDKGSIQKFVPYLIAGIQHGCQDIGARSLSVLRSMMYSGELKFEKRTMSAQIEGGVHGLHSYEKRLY

Row | IC50 [1] [µM] | IC50 [2] [µM] | IC50 [3] [µM] | SMILES
1 | > 25 | > 25 | 1.6 | COC(=O)c1c(C)c(=O)[nH]c2ccccc12 [methyl 3-methyl-2-oxo-1,2-dihydroquinoline-4-carboxylate, Compound E]
2 | > 50 | > 50 | 3.3 | CC(Oc1ccccc1)C(=O)Nc1ccc(Cl)cc1 (configuration not stated)
3 | > 50 | > 50 | 5.9 | O=c1[nH]c2ccc(Oc3ccc4[nH]c(=O)c(=O)[nH]c4c3)cc2[nH]c1=O [Tetrahydroquinoxalin analog, J]

Row | SMILES | IC50 [1] [µM] | IC50 [2] [µM] | IC50 [3] [µM]
4 | O=C(N/C=N\c1cccnc1)C1COc2ccccc2O1 (configuration not stated) [N-[(Z)-N-(pyridin-3-yl)carboximidoyl]-2,3-dihydro-1,4-benzodioxine-2-carboxamide, K] | > 500 | > 500 | 19
